Source: PMC7310833, “Structural and biochemical characterization of a novel thermophilic Coh01147 protease” (PLoS ONE, 2020)

Target: T1, protease 1147 (Cohnella sp. A01, UniProt A0A5J6KIY6)
T1 construct: full length, 169 residues, no signal peptide, C-terminal His-tag (pET26b(+)), E. coli BL21 (DE3), about 18 kDa on SDS-PAGE; N-terminus from primer MKKVAFL; Ni-NTA
T1 sequence (A0A5J6KIY6 1-169): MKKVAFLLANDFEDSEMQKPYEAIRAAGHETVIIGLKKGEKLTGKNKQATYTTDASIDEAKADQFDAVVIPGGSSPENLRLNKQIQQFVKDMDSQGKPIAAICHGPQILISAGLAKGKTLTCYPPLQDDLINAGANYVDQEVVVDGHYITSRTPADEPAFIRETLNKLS
Assay: casein hydrolysis, TCA-soluble A280
Format: biochemical
Conditions: […] and […] inhibitor; casein substrate; table prints NA, text says completely inhibited; […] C, pH […]

CC(C)C[C@H](NC(=O)[C@@H]1O[C@H]1C(=O)O)C(=O)NCCCCN=C(N)N [E-64, Trans-Epoxysuccinyl-L-leucylamido (4-guanidino) butane]
relative activity (%): completely inhibited by IAM, E-64, and leupeptin, which are the typical cysteine protease inhibitors
